Test system: Amblyomma americanum
Assay: Dose characterization of spot-on formulations against Amblyomma americanum ticks in dogs (Example 4)
Type: in vivo
Description: The efficacy of a spot-on composition of the invention comprising an isoxazoline compound (Cmpd. A) in a carrier vehicle comprising either DES alone or DES+lauryl lactate (LL), against ticks (Amblyomma americanum), in dogs was studied. The compositions contained 3.0%, 4.5%, or 6.0% Cmpd. A in either DES alone or DES+lauryl lactate, which delivered doses of […], respectively, of Cmpd. A to dogs infested with A. Americanum ticks.
Seven Treatment Groups were evaluated. Treatment Group 1 was administered a placebo formulation and served as a control. Treatment Groups 2, 3 and 4 were administered a topical formulation comprising 6.0% (w/v), 4.5% (w/v) and 3.0% (w/v) of Cmpd. A in DES, respectively, corresponding to doses of 4.0 mg/kg, 3.0 mg/kg and 2.0 mg/kg, respectively. Treatment Groups 5, 6 and 7 were administered a topical formulation comprising 6.0% (w/v), 4.5% (w/v) and 3.0% (w/v) of Cmpd. A in DES+9% lauryl lactate, respectively, corresponding to doses of […], 3.0 mg/kg and 2.0 mg/kg body weight Cmpd. A, respectively.
All dogs were treated once topically on Day 0 by parting the hair and applying the solution from a syringe directly onto the skin in a single spot on the midline of the neck between the base of the skull and the shoulder blades.
All dogs were infested with approximately 50 A. americanum on Days −1, 7, 14, 21, 28, 35 and 42. Ticks were counted upon removal on Days 2, 9, 16, 23, 30, 37 and 44. The % reduction of ticks for each Group is presented Table 5 below.

## O=C(CNC(=O)c1ccc(C2=NOC(c3cc(Cl)cc(C(F)(F)F)c3)(C(F)(F)F)C2)c2ccccc12)NCC(F)(F)F (stereo not shown) [Compound A, 4-[5-[3-chloro-5-(trifluoromethyl)phenyl]-4,5-dihydro-5-(trifluoromethyl)-3-isoxazolyl]-N-[2-oxo-2-[(2,2,2-trifluoroethyl)amino]ethyl]-1-naphthalanecarboxamide]
Group 2: 6.0% in DES, 4.0 mg/kg, Day 2
  % Reduction Ticks: 97.4%
Group 2: 6.0% in DES, 4.0 mg/kg, Day 9
  % Reduction Ticks: 100.0%
Group 2: 6.0% in DES, 4.0 mg/kg, Day 16
  % Reduction Ticks: 100.0%
Group 2: 6.0% in DES, 4.0 mg/kg, Day 23
  % Reduction Ticks: 100.0%
Group 2: 6.0% in DES, 4.0 mg/kg, Day 30
  % Reduction Ticks: 82.5%
Group 2: 6.0% in DES, 4.0 mg/kg, Day 37
  % Reduction Ticks: 97.9%
Group 2: 6.0% in DES, 4.0 mg/kg, Day 44
  % Reduction Ticks: 84.2%
Group 3: 4.5% in DES, 3.0 mg/kg, Day 2
  % Reduction Ticks: 90.0%
Group 3: 4.5% in DES, 3.0 mg/kg, Day 9
  % Reduction Ticks: 100.0%
Group 3: 4.5% in DES, 3.0 mg/kg, Day 16
  % Reduction Ticks: 97.6%
Group 3: 4.5% in DES, 3.0 mg/kg, Day 23
  % Reduction Ticks: 82.0%
Group 3: 4.5% in DES, 3.0 mg/kg, Day 30
  % Reduction Ticks: 70.0%
Group 3: 4.5% in DES, 3.0 mg/kg, Day 37
  % Reduction Ticks: 80.4%
Group 3: 4.5% in DES, 3.0 mg/kg, Day 44
  % Reduction Ticks: 56.0%
Group 4: 3.0% in DES, 2.0 mg/kg, Day 2
  % Reduction Ticks: 95.4%
Group 4: 3.0% in DES, 2.0 mg/kg, Day 9
  % Reduction Ticks: 100.0%
Group 4: 3.0% in DES, 2.0 mg/kg, Day 16
  % Reduction Ticks: 100.0%
Group 4: 3.0% in DES, 2.0 mg/kg, Day 23
  % Reduction Ticks: 79.5%
Group 4: 3.0% in DES, 2.0 mg/kg, Day 30
  % Reduction Ticks: 90.3%
Group 4: 3.0% in DES, 2.0 mg/kg, Day 37
  % Reduction Ticks: 57.1%
Group 4: 3.0% in DES, 2.0 mg/kg, Day 44
  % Reduction Ticks: 38.8%
Group 5: 6.0% in DES+9% lauryl lactate, 4.0 mg/kg, Day 2
  % Reduction Ticks: 100.0%
Group 5: 6.0% in DES+9% lauryl lactate, 4.0 mg/kg, Day 9
  % Reduction Ticks: 100.0%
Group 5: 6.0% in DES+9% lauryl lactate, 4.0 mg/kg, Day 16
  % Reduction Ticks: 100.0%
Group 5: 6.0% in DES+9% lauryl lactate, 4.0 mg/kg, Day 23
  % Reduction Ticks: 94.3%
Group 5: 6.0% in DES+9% lauryl lactate, 4.0 mg/kg, Day 30
  % Reduction Ticks: 100.0%
Group 5: 6.0% in DES+9% lauryl lactate, 4.0 mg/kg, Day 37
  % Reduction Ticks: 89.0%
Group 5: 6.0% in DES+9% lauryl lactate, 4.0 mg/kg, Day 44
  % Reduction Ticks: 84.8%
Group 6: 4.5% in DES+9% lauryl lactate, 3.0 mg/kg, Day 2
  % Reduction Ticks: 98.4%
Group 6: 4.5% in DES+9% lauryl lactate, 3.0 mg/kg, Day 9
  % Reduction Ticks: 100.0%
Group 6: 4.5% in DES+9% lauryl lactate, 3.0 mg/kg, Day 16
  % Reduction Ticks: 100.0%
Group 6: 4.5% in DES+9% lauryl lactate, 3.0 mg/kg, Day 23
  % Reduction Ticks: 93.1%
Group 6: 4.5% in DES+9% lauryl lactate, 3.0 mg/kg, Day 30
  % Reduction Ticks: 92.1%
Group 6: 4.5% in DES+9% lauryl lactate, 3.0 mg/kg, Day 37
  % Reduction Ticks: 89.0%

Source: patent US11464763B2, “Parasiticidal compositions comprising an isoxazoline active agent, methods and uses thereof” (BOEHRINGER INGELHEIM ANIMAL HEALTH USA INC., priority 2011, dated 2022)
